This is an account of results in patent publication US20100305093A1, “Inhibitors of mTOR and Methods of Making and Using” (EXELIXIS, INC., priority 2009, published 2010).

This assay addresses mTOR/GbL/Raptor (mTORC1) (Homo sapiens, UniProt P42345). As to the kind of experiment: mTOR/GbL/Raptor (mTORC1) ELISA assay, phosphorylation of 4E-BP1. The assay is classed as biochemical. As to conditions: 0.2 nM mTORC1, 10 μM ATP, 50 nM NHis-tagged 4E-BP1. How it is done: mTOR/GbL/Raptor (mTORC1) ELISA Assay
The measurement of mTORC1 enzyme activity was performed in an ELISA assay format following the phosphorylation of 4E-BP1 protein. All experiments were performed in the 384-well format. Generally, 0.5 μL DMSO containing varying concentrations of the test compound was mixed with 15 μL enzyme solution. Kinase reactions were initiated with the addition of 15 μL of substrates-containing solution. The assay conditions were as follows; 0.2 nM mTORC1, 10 μM ATP and 50 nM NHis-tagged 4E-BP1 in 20 mM Hepes, pH 7.2, 1 mM DTT, 50 mM NaCl, 10 mM MnCl2, 0.02 mg/mL BSA, 0.01% CHAPS, 50 mM β-glycerophosphate. Following an incubation of 120 minutes at ambient temperature, 20 μL of the reaction volume was transferred to a Ni-Chelate-coated 384-well plate. The binding step of the 4E-BP1 protein proceeded for 60 minutes, followed by washing 4 times each with 50 μL of Tris-buffered saline solution (TBS). Anti-phospho-4E-BP1 rabbit-IgG (20 μL, 1:5000) in 5% BSA-TBST (0.2% Tween-20 in TBS) was added and further incubated for 60 minutes. Incubation with a secondary HRP-tagged anti-IgG was similarly performed after washing off the primary antibody (4 washes of 50 μL). Following the final wash step with TBST, 20 μL of SuperSignal ELISA Femto (Pierce Biotechnology) was added and the luminescence measured using an EnVision plate reader.
(ELISA stands for enzyme-linked immunosorbent assay.)

Setting [1] is: read-out: Activity in mTOR/GbL/Raptor ELISA Assay.
The mark [2] stands for this setting: read-out: activity in mTOR/GbL/Raptor (mTORC1) ELISA assay, activity bands by Table 1 compound number.

SMILES strings stand for the structures. pIC50: −log10 of the molar value. Read-outs that look alike come from different tables or passages of the source. Where only a bound is given, the exact number is not on record here.

For the compound `O=C(c1ccc(C(O)(O)C(F)(F)F)cc1)N1CCOc2ccc(-c3ccc(-c4ncc[nH]4)cc3)cc2C1` [2,2,2-trifluoro-1-[4-({7-[4-(1H-imidazol-2-yl)phenyl]-2,3-dihydro-1,4-benzoxazepin-4(5H)-yl}carbonyl)phenyl]ethane-1,1-diol], the pIC50 under setting [1] is 8.52.
For `CCc1c(C(=O)N2CCOc3ccc(-c4ccc(NC(=O)N(C)C)cc4)cc3C2)ccc(S(C)(=O)=O)c1F` [3-[4-(4-{[2-ethyl-3-fluoro-4-(methylsulfonyl)phenyl]carbonyl}-2,3,4,5-tetrahydro-1,4-benzoxazepin-7-yl)phenyl]-1,1-dimethylurea], the pIC50 under setting [1] is 7.84.
Same read-out and setting: under `CCc1c(C(=O)N2CCOc3ccc(-c4ccc(C(=O)NC)c(F)c4)cc3C2)ccc(S(C)(=O)=O)c1F` [4-(4-{[2-ethyl-3-fluoro-4-(methylsulfonyl)phenyl]carbonyl}-2,3,4,5-tetrahydro-1,4-benzoxazepin-7-yl)-2-fluoro-N-methylbenzamide] stands 7.92; under `Cc1nc2ccc(-c3ccc4c(c3)CN(C(=O)c3ccc5c(c3)CCS5(=O)=O)CCO4)cc2[nH]1` [4-[(1,1-dioxido-2,3-dihydro-1-benzothien-5-yl)carbonyl]-7-(2-methyl-1H-benzimidazol-6-yl)-2,3,4,5-tetrahydro-1,4-benzoxazepine], 8.32; under `Cc1nc2ccc(-c3ccc4c(c3)CN(C(=O)c3cc5nc(C)sc5n3C)CCO4)cc2[nH]1` [4-[(2,4-dimethyl-4H-pyrrolo[3,2-d][1,3]thiazol-5-yl)carbonyl]-7-(2-methyl-1H-benzimidazol-6-yl)-2,3,4,5-tetrahydro-1,4-benzoxazepine], 7.76.
Still for that read-out and setting: the same measure for `CCn1c(C(=O)N2CCOc3ccc(-c4ccc5nc(C)[nH]c5c4)cc3C2)c(Cl)c2ccccc21` [4-[(3-chloro-1-ethyl-1H-indol-2-yl)carbonyl]-7-(2-methyl-1H-benzimidazol-6-yl)-2,3,4,5-tetrahydro-1,4-benzoxazepine]: 8.02; for `COc1ccc(OC)c(S(=O)(=O)c2ccc(C(=O)N3CCOc4ccc(-c5ccc6nc(C)[nH]c6c5)cc4C3)cc2)c1` [4-[(4-{[2,5-bis(methyloxy)phenyl]sulfonyl}phenyl)carbonyl]-7-(2-methyl-1H-benzimidazol-6-yl)-2,3,4,5-tetrahydro-1,4-benzoxazepine]: 8.49.
The same measure, in the same setting: the same measure for `CCc1c(C(=O)N2CCOc3ccc(-c4ccc(-c5nc6ccc(C)cc6[nH]5)cc4)cc3C2)ccc(S(C)(=O)=O)c1F` [4-{[2-ethyl-3-fluoro-4-(methylsulfonyl)phenyl]carbonyl}-7-[4-(6-methyl-1H-benzimidazol-2-yl)phenyl]-2,3,4,5-tetrahydro-1,4-benzoxazepine]: 8.22.
Turning to `CC(C)NS(=O)(=O)c1ccc(C(=O)N2CCOc3ccc(-c4ccc5nc[nH]c5c4)cc3C2)c(Br)c1` [4-{[7-(1H-benzimidazol-6-yl)-2,3-dihydro-1,4-benzoxazepin-4(5H)-yl]carbonyl}-3-bromo-N-(1-methylethyl)benzenesulfonamide], the pIC50 under setting [1] was 8.25.
Still for that read-out and setting: the same measure for `Nc1ccc(-c2ccc3c(c2)CN(C(=O)c2ccc(S(N)(=O)=O)cc2)CCO3)cn1` [4-{[7-(6-aminopyridin-3-yl)-2,3-dihydro-1,4-benzoxazepin-4(5H)-yl]carbonyl}benzenesulfonamide]: 8.18; for `Cc1ccc(C(=O)N2CCOc3ccc(-c4ccc5nc[nH]c5c4)cc3C2)c(C)c1` [7-(1H-benzimidazol-6-yl)-4-[(2,4-dimethylphenyl)carbonyl]-2,3,4,5-tetrahydro-1,4-benzoxazepine]: 8.19; for `O=C(c1ccc(-c2csnn2)cc1)N1CCOc2ccc(-c3ccc4cn[nH]c4c3)cc2C1` [7-(1H-indazol-6-yl)-4-{[4-(1,2,3-thiadiazol-4-yl)phenyl]carbonyl}-2,3,4,5-tetrahydro-1,4-benzoxazepine]: 8.20.
Take `Cc1nc2ccc(-c3ccc4c(c3)CN(C(=O)c3ccc(S(=O)(=O)N5CCN(C)CC5)cc3)CCO4)cc2[nH]1` [7-(2-methyl-1H-benzimidazol-6-yl)-4-({4-[(4-methylpiperazin-1-yl)sulfonyl]phenyl}carbonyl)-2,3,4,5-tetrahydro-1,4-benzoxazepine]: the pIC50 under setting [1] is 8.07.
Consider `Cc1nc2ccc(-c3ccc4c(c3)CN(C(=O)c3cc(S(=O)(=O)N5CCCC5)cn3C)CCO4)cc2[nH]1` [7-(2-methyl-1H-benzimidazol-6-yl)-4-{[1-methyl-4-(pyrrolidin-1-ylsulfonyl)-1H-pyrrol-2-yl]carbonyl}-2,3,4,5-tetrahydro-1,4-benzoxazepine], for which, under setting [1], the pIC50 was 8.15.
Consider `CCS(=O)(=O)c1ccc(C(=O)N2CCOc3ccc(-c4ccc(N)nc4)cc3C2)c(C)c1F` [Example 566, 5-(4-{[4-(ethylsulfonyl)-3-fluoro-2-methylphenyl]carbonyl}-2,3,4,5-tetrahydro-1,4-benzoxazepin-7-yl)pyridin-2-amine], for which the pIC50 under setting [2] is no less than 8.00.
Still for that read-out and setting: under `O=C(c1ccc(C(=O)C(F)(F)F)cc1)N1CCOc2ccc(-c3cccnc3)cc2C1` [Example 884, 2,2,2-trifluoro-1-{4-[(7-pyridin-3-yl-2,3-dihydro-1,4-benzoxazepin-4(5H)-yl)carbonyl]phenyl}ethanone] stands 7.00 to 8.00; under `COc1ccc(-c2ccc3c(c2)CN(C(=O)c2ccc(S(N)(=O)=O)cc2)CCO3)cn1` [Example 885, 4-({7-[6-(methyloxy)pyridin-3-yl]-2,3-dihydro-1,4-benzoxazepin-4(5H)-yl}carbonyl)benzenesulfonamide], 7.00 to 8.00.
As for `COc1ccc(-c2ccc3c(c2)CN(C(=O)c2ccc(S(C)(=O)=O)cc2)CCO3)cn1` [Example 886, 7-[6-(methyloxy)pyridin-3-yl]-4-{[4-(methylsulfonyl)phenyl]carbonyl}-2,3,4,5-tetrahydro-1,4-benzoxazepine], the pIC50 under setting [2] is 6.30 to 7.00.
Same read-out and setting: the same measure for `COc1ccc(-c2ccc3c(c2)CN(C(=O)c2ccc(C(=O)C(F)(F)F)cc2)CCO3)cn1` [Example 887, 2,2,2-trifluoro-1-[4-({7-[6-(methyloxy)pyridin-3-yl]-2,3-dihydro-1,4-benzoxazepin-4(5H)-yl}carbonyl)phenyl]ethanone]: 7.00 to 8.00.
On the same count and under the same terms, under `CS(=O)(=O)c1ccc(C(=O)N2CCOc3ccc(-c4ccc(N)nc4)cc3C2)cc1` [Example 888, 5-(4-{[4-(methylsulfonyl)phenyl]carbonyl}-2,3,4,5-tetrahydro-1,4-benzoxazepin-7-yl)pyridin-2-amine] stands 7.00 to 8.00.
`CCc1c(C(=O)N2CCOc3ccc(-c4ccc(C(=O)NCC5CNC5)cc4)cc3C2)ccc(S(C)(=O)=O)c1F` [N-(azetidin-3-ylmethyl)-4-(4-{[2-ethyl-3-fluoro-4-(methylsulfonyl)phenyl]carbonyl}-2,3,4,5-tetrahydro-1,4-benzoxazepin-7-yl)benzamide]: the pIC50 under setting [1] is 8.00.
Same read-out and setting: under `CCc1c(C(=O)N2CCOc3ccc(-c4cnc(NCCNC)s4)cc3C2)ccc(S(C)(=O)=O)c1F` [N-[5-(4-{[2-ethyl-3-fluoro-4-(methylsulfonyl)phenyl]carbonyl}-2,3,4,5-tetrahydro-1,4-benzoxazepin-7-yl)-1,3-thiazol-2-yl]-N′-methylethane-1,2-diamine] stands 8.28.
